Results: patent US8426353B2, “Process for preparing polyurea microcapsules” (Firmenich SA, priority 2008, dated 2013)
Like-named read-outs stand apart in the source and are kept apart here.

Key:
[1] = GC-MS analysis of perfume leaked out of the capsules during one month storage in concentrated liquid detergent; type: physicochemical; conditions: for Percentage of ingredient having leaked out of the capsules during one month storage, % In concentrated Liquid Detergent 22° C. / Percentage of ingredient having leaked out of the capsules during one month storage, % In concentrated Liquid Detergent 37° C.: perfume of Example 6 encapsulated per Example 2, capsules at 1.25% in Tide 2x Concentrated HE Free; for Percentage of ingredient having leaked out of the capsules during one month storage, % In concentrated Liquid Detergent 22° C. / Percentage of perfume having leaked out of the capsules upon one month storage, % In Concentrated Liquid Detergent at 22° C.: one month at 22° C.; for Percentage of ingredient having leaked out of the capsules during one month storage, % In concentrated Liquid Detergent 37° C. / Percentage of perfume having leaked out of the capsules upon one month storage, % In Concentrated Liquid Detergent at 37° C.: one month at 37° C.; for Percentage of perfume having leaked out of the capsules upon one month storage, % In Concentrated Liquid Detergent at 22° C. / Percentage of perfume having leaked out of the capsules upon one month storage, % In Concentrated Liquid Detergent at 37° C.: perfume of Example 9 encapsulated per Example 2, capsules at 1.25% in Tide 2x Concentrated HE Free
Excerpt: The concentrated liquid detergent base was a commercially available Tide® 2× Concentrated HE Free of perfume & dye (trademark of Procter and Gamble, USA).
The concentrated liquid detergent base was the commercially available Tide® 2× Concentrated HE Free of perfume & dye (trademark of Procter and Gamble, USA).

[2] = GC-MS analysis of perfume leaked out of the capsules during one month storage in concentrated fabric softener; type: physicochemical; conditions: for Percentage of ingredient having leaked out of the capsules during one month storage, % In fabric softener 37° C.: perfume of Example 6 encapsulated per Example 2, capsules at 1.25%; for Percentage of ingredient having leaked out of the capsules during one month storage, % In fabric softener 37° C. / Percentage of perfume having leaked out of the capsules upon one month storage, % In fabric softener at 37° C.: one month at 37° C.; for Percentage of perfume having leaked out of the capsules upon one month storage, % In fabric softener at 22° C. / Percentage of perfume having leaked out of the capsules upon one month storage, % In fabric softener at 37° C.: perfume of Example 9 encapsulated per Example 2, capsules at 1.25%; for Percentage of perfume having leaked out of the capsules upon one month storage, % In fabric softener at 22° C.: one month at 22° C.
Description: The concentrated fabric softener base was prepared by admixing the ingredients listed in Table 4, in the amounts indicated.

[3] = LogP of the perfume ingredients
[4] = ingredients of the perfume of Example 6 (Table 1)
[5] = ingredients of the perfume of Example 9 (Table 9)

Compound | Percentage of ingredient having leaked out of the capsules during one month storage, % In concentrated Liquid Detergent 22° C. [1] [%] | Percentage of ingredient having leaked out of the capsules during one month storage, % In concentrated Liquid Detergent 37° C. [1] [%] | Percentage of perfume having leaked out of the capsules upon one month storage, % In Concentrated Liquid Detergent at 22° C. [1] [%] | Percentage of perfume having leaked out of the capsules upon one month storage, % In Concentrated Liquid Detergent at 37° C. [1] [%] | Percentage of ingredient having leaked out of the capsules during one month storage, % In fabric softener 37° C. [2] [%] | Percentage of perfume having leaked out of the capsules upon one month storage, % In fabric softener at 22° C. [2] [%] | Percentage of perfume having leaked out of the capsules upon one month storage, % In fabric softener at 37° C. [2] [%] | LogP [3, 4] | LogP [3, 5] | LogP [3]
CC(=O)C1(C)CC2=C(CCCC2(C)C)CC1C (centres unmarked) [Iso E super ®, 1-(octahydro-2,3,8,8-tetramethyl-2-naphtalenyl)-1-ethanone] | 1 | 4 | 2 | 9 | 4 | 2 | 4 | 4.71 | 4.71 | 
CC12CCC(CC1)C(C)(C)O2 [1,8-Cineole] | 2 | 21 |  |  | 11 |  |  | 3.13 |  | 
CCCCCCCCCCCCCC(=O)OC(C)C [Isopropyl myristate] |  |  |  |  |  |  |  |  |  | 7.17
C=CCOC(=O)COC1CCCCC1 [Cyclogalbanate, Allyl (cyclohexyloxy)-acetate] |  |  | 15 |  |  | 15 | 82 |  |  | 
O=C1CCCCCCCCC/C=C/CCCO1 [Habanolide ®, pentadecenolide] | 0 | 0 | 0 | 0 | 1 | 0 | 0 |  |  | 
C=CCOC(=O)CCCCCC [Allyl heptanoate] |  |  | 46 | 100 |  | 46 | 98 |  |  | 3.67
C=CCCC(=O)C1=CCCC(C)(C)C1 [Neobutenone ® alpha, 1-(5,5-dimethyl-1-cyclohexen-1-yl)-4-penten-1-one] | 1 | 27 |  |  | 9 |  |  |  |  | 4.45
CC1(C)CCCC2(C)C1CCC1(C)OCCC12 (centres unmarked) [Cetalox ®, dodecahydro-3a,6,6,9a-tetramethyl-naphtho[2,1-b]furan] | 0 | 4 |  |  | 3 |  |  |  |  | 
CC(=O)OC/C=C(\C)CCC=C(C)C [Geranyl acetate] |  |  | 10 | 77 |  | 10 | 53 |  |  | 4.48
CC1=CC(C)C(C=O)CC1 (centres unmarked) [2,4-Dimethyl-3-cyclohexene-1-carbaldehyde] |  |  | 20 | 70 |  | 20 | 40 |  |  | 
CCCCCCC(C=O)=Cc1ccccc1 [Hexyl cinnamic aldehyde] |  |  | 2 | 46 |  | 2 | 18 |  |  | 4.82

Now from value to compound:

Percentage of ingredient having leaked out of the capsules during one month storage, % In concentrated Liquid Detergent 22° C. [1] [%] | Percentage of ingredient having leaked out of the capsules during one month storage, % In concentrated Liquid Detergent 37° C. [1] [%] | Percentage of perfume having leaked out of the capsules upon one month storage, % In Concentrated Liquid Detergent at 22° C. [1] [%] | Percentage of perfume having leaked out of the capsules upon one month storage, % In Concentrated Liquid Detergent at 37° C. [1] [%] | Percentage of ingredient having leaked out of the capsules during one month storage, % In fabric softener 37° C. [2] [%] | Percentage of perfume having leaked out of the capsules upon one month storage, % In fabric softener at 22° C. [2] [%] | Percentage of perfume having leaked out of the capsules upon one month storage, % In fabric softener at 37° C. [2] [%] | LogP [3, 4] | LogP [3, 5] | LogP [3] | Compound
1 | 14 | 3 | 27 | 5 | 3 | 13 |  |  |  | CC(=O)/C=C/C1=C(C)CCCC1(C)C [β-Ionone]
1 | 6 |  |  | 2 |  |  | 5.39 |  |  | (1′R,E)-3,3-dimethyl-5-(2′,2′,3′-trimethyl-3′-cyclopenten-1′-yl)-4-penten-2-ol [Polysantol ®]
 |  | 3 | 17 |  | 3 | 8 |  |  |  | CC(=O)OC1CCCCC1C(C)(C)C (centres unmarked) [Verdox ®, 2-Tert-butyl-1-cyclohexyl acetate]
 |  | 3 | 37 |  | 3 | 17 |  | 4.34 |  | Terpenyl acetate
1 | 14 |  |  | 5 |  |  | 3.76 |  |  | CC(=O)OC1CC2CC1C1CC=CC21 (centres unmarked) [Verdylate]
 |  | 6 | 80 |  | 6 | 10 |  | 2.85 |  | CC(=O)OC1CC2CC1C1CC=CC21 (centres unmarked) [Verdyl acetate, Verdyl Acetate]
 |  | 8 | 92 |  | 8 | 68 |  | 3.58 |  | CC(C)=CC1CC(C)CCO1 (centres unmarked) [Rose oxide]
 |  |  |  | 3 |  |  | 4.28 |  |  | CC1(O)CCC2C(=CCCC2(C)C)C1 (centres unmarked) [Octalynol]
